“Also recorded” adds a separate entry of the source.
Assays:
[1] = phase II clinical trials; cited from earlier work
[2] = system: GNMT knockout mice; assay: Prepulse inhibition (PPI) of acoustic startle reflex in drug-treated GNMT knockout mice; type: in vivo, mouse
Procedure: The apparatus consisted of two startle chambers (Med Associates, Georgia, Vt.). One mouse selected from the WT control group and the other selected from GNMT deficient group were tested simultaneously. Each mouse was put into the PPI chamber for a 5-min acclimatization period with a […] background noise. Following this period, 10 startle pulses (120 dB, 40 ms duration) were presented with an average inter-trial interval of 15 s. Then, no stimulus (background noise, 68 dB), prepulses alone (72, 76 and 84 dB, 20 ms duration), startle pulses alone, and prepulses followed 80 ms later by startle pulses were presented six times randomly distributed over the next 20 min. […]
In view of the observed deficits in prepulse inhibition (PPI) of the acoustic startle reflex in GNMT knockout mice, we administered clozapine (a […] anti-schizophrenic drug, 1 mg/kg) to the GNMT knockout mice, and evaluated the therapeutic effects on schizophrenia. […]
Another hypothesis of schizophrenia pathology is that neuropsychiatric disorder may be associated with the dysfunction of N-methyl-D-aspartate (NMDA) receptor, a glutamate receptor. […] Therefore, in a further experiment, sarcosine (100 mg/kg) is administered to the GNMT knockout mice, and evaluated its therapeutic effects on schizophrenia.

[3] = target: T1, glycine transporter-1 (Homo sapiens, UniProt P48067); details: clinical studies, supplement of sarcosine; cited from earlier work
T1 construct: host or cells: human patients (endogenous transporter)
T1 sequence (P48067 1-706): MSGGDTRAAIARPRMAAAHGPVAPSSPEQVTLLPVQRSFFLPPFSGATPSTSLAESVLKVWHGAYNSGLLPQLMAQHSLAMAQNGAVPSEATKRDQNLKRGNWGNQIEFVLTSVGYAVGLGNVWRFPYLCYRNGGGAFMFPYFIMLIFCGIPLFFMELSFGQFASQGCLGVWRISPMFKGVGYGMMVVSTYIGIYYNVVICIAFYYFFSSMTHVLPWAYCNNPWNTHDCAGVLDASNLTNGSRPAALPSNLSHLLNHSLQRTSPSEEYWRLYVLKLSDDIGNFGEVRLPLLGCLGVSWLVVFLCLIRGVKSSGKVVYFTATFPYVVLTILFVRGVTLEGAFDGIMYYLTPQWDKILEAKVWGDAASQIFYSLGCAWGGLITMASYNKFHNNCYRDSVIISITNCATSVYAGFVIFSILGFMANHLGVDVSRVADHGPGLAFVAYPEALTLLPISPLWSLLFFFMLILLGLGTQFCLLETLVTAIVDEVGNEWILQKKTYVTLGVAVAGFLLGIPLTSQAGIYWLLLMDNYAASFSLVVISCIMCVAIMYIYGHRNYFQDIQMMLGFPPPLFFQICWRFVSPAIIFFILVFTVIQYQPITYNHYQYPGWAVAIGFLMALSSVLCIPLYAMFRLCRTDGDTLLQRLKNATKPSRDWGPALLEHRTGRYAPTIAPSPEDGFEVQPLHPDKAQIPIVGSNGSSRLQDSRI

CNCC(=O)O [sarcosine]
symptoms of depression [1]: effective to ameliorate symptoms of depression | level of startle amplitude ([2]; sarcosine 100 mg/kg (FIG. 10)): unaffected | percent PPI of ASR ([2]; sarcosine 100 mg/kg, compared with solvent control (FIG. 11)): significantly induced PPI; also recorded: significantly ameliorated deficits in prepulse inhibition | symptoms of schizophrenia [3]: can improve the symptoms of schizophrenia

Reference: patent US8697939B2, “Mouse model for depression, schizophrenia and alzheimer's disease and the use thereof” (National Yang Ming University, priority 2009, dated 2014)
